Test results: patent publication US10166221B2, “Formulations of an LSD1 inhibitor” (Incyte Corporation, priority 2016, dated 2019)
Structures can show the parent of a compound that is named as a salt.

Key:
[1] = Excipient compatibility, UV HPLC method (degradation, impurities other than Compound 2)
Method: This study was performed to determine stability of Compound 1 di-tosylate salt, Form I, in combination with various oral solid dosage form excipients. […] The data of the blends were compared with a control sample (Compound 1 di-tosylate salt alone) to assess the effect of each excipient relative to Compound 1 di-tosylate salt alone.
Blends were prepared by screening the components together; aliquots were then weighed for stability testing. The binary blend samples were initially stored under accelerated conditions (50° C./dry, 50° C./75% RH) in open glass vials and analyzed by HPLC to determine the potential for drug substance degradation with each excipient. […] Analysis of a control (Compound 1 di-tosylate salt alone) was included for comparison at each condition.
Compound 1 di-tosylate salt was blended at the desired ratio of excipient to drug (see Table 7 below) by weighing each material, mixing with a spatula in a vial, and screening the mixture 5 times with an 18 mesh screen. A control sample was included for comparison to the blends. The weight equivalent of approximately 4 mg of Compound 1 di-tosylate salt was added to each glass vial and initially set-up at 50° C./dry (<20% RH) and 50° C./75% RH. Based on results after 1 week at 50° C.; additional samples were set-up at 40° C./dry and 40° C./75% RH. […] The 75% RH chamber was maintained by using a saturated sodium chloride solution in water (inside a closed chamber). The humidity of the 75% RH chamber was verified with a hygrometer (VWR brand). Samples were tested by HPLC after 1 week at 50° C. and 1 and 2 weeks at 40° C. (low and high RH at both temperatures). Data were also measured for samples at 20° C. in closed vials.
Samples were analyzed by HPLC using the method described below after dilution in 85% H2O (0.1% TFA)/15% acetonitrile to 4 mL, sonication for 5 minutes, and filtration (0.45 μm Acrodisc GHP). One injection per sample was performed at each stability station. Two methods were performed on the stability samples: a UV based HPLC method and a mass spectroscopy HPLC method performed for one impurity (Compound 2).
UV HPLC Method-Instrument: Agilent 1260 HPLC; Column: Ascentis Express C18 4.6×150 mm; Mobile Phase A: Water (0.1% TFA); Mobile Phase B: Acetonitrile (0.1% TFA); Flow Rate: 1.0 mL/min; Injection volume: 10 μL; UV Detection 214 nm; Column Temperature: 30° C.; Run Time: 33 min; Sample concentration: 1.0 mg/mL as salt; Threshold: 0.1%; Gradient Program:
Accelerated storage (50° C., 40° C.) conditions were used to identify potential drug-excipient interactions.

[2] = Crystalline form change under storage conditions; assay type: physicochemical; conditions: storage conditions of 25° C./60% RH and 40° C./75% RH
Method: Form HI of Compound 1 di-tosylate salt was prepared during the process of drying a wet sample of Compound 1 di-tosylate salt, Form I, under ambient conditions. Form I slowly absorbed atmospheric moisture and gradually changed to crystalline Form HI.
Form HI of Compound 1 di-tosylate salt was prepared during the process of drying a wet sample of Compound 1 di-tosylate salt, Form I, under ambient conditions. Form I slowly absorbed atmospheric moisture and gradually changed to crystalline Form HI. […] Form HI can also be generated by purging humidified air (e.g., 60-85% RH) through Form I solid.

[3] = Excipient compatibility, mass spectroscopy HPLC method (% Compound 2); assay type: physicochemical
Text: (low and high RH at both temperatures).

[4] = DVS moisture uptake analysis; assay type: physicochemical
Method: Form DH was characterized by DVS. The DVS analysis was performed on a TA Instruments Vapor Sorption Analyzer, model VTI-SA^+. Form DH was generated by pre-drying Form HI on VTI at 40° C. with 0% RH N2 for 3 h. Then the moisture uptake profile was completed in one cycle in 5% RH increments with adsorption from 0% RH to 95% RH followed by desorption in 5% increments from 95% to […]. The equilibration criteria were 0.0010 wt % in 5 minutes with a maximum equilibration time of 180 minutes. All adsorption and desorption were performed at 25° C.

Compound | Compound 1 di-tosylate salt degradation (UV Method) ([1]; 1 W 40° C./75% RH) [%] | Compound 1 di-tosylate salt degradation (UV Method) ([1]; 1 W 40° C./dry) [%] | Compound 1 di-tosylate salt degradation (UV Method) ([1]; 1 w 50° C./75% RH, open glass vials, peak area percent) [%] | Compound 1 di-tosylate salt degradation (UV Method) ([1]; 1 w 50° C./dry (<20% RH), open glass vials, peak area percent) [%] | Compound 1 di-tosylate salt degradation (UV Method) ([1]; 2 W 40° C./75% RH) [%] | Compound 1 di-tosylate salt degradation (UV Method) ([1]; 2 W 40° C./dry) [%] | 20° C. 2 w UV method ([1]; 20° C., 2 w, closed vials) [%] | Crystalline form change on storage [2] | % Compound 2 ([3]; 1 w 50° C./75% RH) [%] | % Compound 2 ([3]; 1 w 50° C./dry) [%] | 2 W 20° C. % of cmpd 2 ([3]; 20° C., 2 w, closed vials) [%] | wt % of Compound 2 ([3]; 40° C. (dry) 1 W) [wt %] | wt % of Compound 2 ([3]; 40° C. (dry) 2 W) [wt %] | wt % of Compound 2 ([3]; 40° C./75% RH 1 w) [wt %] | wt % of Compound 2 ([3]; 40° C./75% RH 2 w) [wt %] | Hygroscopicity (DVS) ([4]; adsorption 0% RH to 95% RH, desorption 95% to 85% RH, 25° C.) | Solid collected after DVS ([4]; after DVS at 85% RH)
COCC1(CN[C@@H]2C[C@H]2c2ccccc2)CCN(CC2(C(=O)O)CCC2)CC1 [Cmpd 1 di-tosylate salt alone, 1-{[4-(methoxymethyl)-4-({[(1R,2S)-2-phenylcyclopropyl]amino}methyl)piperidin-1-yl]methyl}cyclobutanecarboxylic acid bis(4-methylbenzenesulfonate)] | <0.1 | 0.43 | 0.3 | 1.4 | <0.1 | 0.86 | <0.1 | converted to Form HI | 2.47 | 2.37 | 0.43 | 1.4 | 3.4 | 1.3 | 1.9 |  | 
COCC1(CN[C@@H]2C[C@H]2c2ccccc2)CCN(CC2(C(=O)O)CCC2)CC1 [Form DH] |  |  |  |  |  |  |  |  |  |  |  |  |  |  |  | hygroscopic | Form HI
